The values below are quoted from earlier work in US20190358206A1, “TOPICAL FORMULATIONS OF BIARYL HETEROCYCLIC COMPOUNDS AND METHODS OF USE THEREOF” (Melinta Subsidiary Corp., priority 2016, published 2019).

The data set concerns intracellular S. aureus (including linezolid-resistant), Listeria monocytogenes and Legionella pneumophila. Particulars: cited from earlier work.

With `CC(=O)NC[C@H]1CN(c2ccc(-c3ccc(CNCc4cnn[nH]4)cc3)c(F)c2)C(=O)O1` [Radezolid, N-[3-(2-Fluoro-4′-{[(1H-[1,2,3]triazol-4-ylmethyl)-amino]-methyl}-biphenyl-4-yl)-2-oxo-oxazolidin-5-(S)-ylmethyl]-acetamide], the intracellular killing entry was “kills intracellular S. aureus (including linezolid-resistant), Listeria monocytogenes and Legionella pneumophila”.
